Tests used:
T. brucei rhodesiense = format: in vivo; conditions: for Cures: cure = survival for more than 60 days after infection without a parasitemia relapse, cured/treated mice; for In vivo toxicity: 4×50 mg/kg ip in infected mice
T. brucei brucei = conditions: ip doses as low as 3 × 1 mg/kg; cure = survival more than 30 days beyond controls; cited from earlier work
[1] = at micromolar concentrations; cited from earlier work
[2] = tested on: T. brucei rhodesiense STIB900; format: cell-based, Trypanosoma brucei rhodesiense; conditions: STIB900 strain, in vitro
[3] = 4×50 mg/kg ip on days 3–6 post-infection

SMILES | Cures (T. brucei rhodesiense; [3]) | In vivo toxicity (T. brucei rhodesiense) | further results
CS(=O)(=O)O.O=C(Nc1ccc(C2=NCCN2)cc1)c1cccc(C(=O)Nc2ccc(C3=NCCN3)cc2)c1 [Compound 2, N,N'-Bis[4-(4,5-dihydro-1H-imidazol-2-yl)phenyl]isophthalamide dimesylate] | completely curative | – | –
CS(=O)(=O)O.O=C(Nc1ccc(C2=NCCN2)cc1)c1ccc(C2=NCCN2)cc1 [Compound 10, N-[4-(4,5-Dihydro-1H-imidazol-2-yl)phenyl]-4-(4,5-dihydro-1H-imidazol-2-yl)benzamide dimesylate] | – | no in vivo toxicity | –
CS(=O)(=O)O.O=C(Nc1ccc(C2=NCCN2)cc1)c1ccc(-c2ccc(C(=O)Nc3ccc(C4=NCCN4)cc3)cc2)cc1 [Compound 8, N,N'-Bis[4-(4,5-dihydro-1H-imidazol-2-yl)phenyl]biphenyl-4,4’-dicarboxamide dimesylate] | ineffective | – | –
CS(=O)(=O)O.O=C(Nc1ccc(C2=NCCN2)cc1)c1ccc(C(=O)Nc2ccc(C3=NCCN3)cc2)cc1 [Compound 1, N,N'-Bis[4-(4,5-dihydro-1H-imidazol-2-yl)phenyl]terephthalamide dimesylate] | – | – | Cure of T. brucei brucei-infected mice (T. brucei brucei): completely cured; Mutagenicity [1]: mutagenic
CS(=O)(=O)O.O=C(Nc1ccc(C2=NCCN2)cc1)c1ccc(NC(=O)c2ccc(C3=NCCN3)cc2)cc1 [Compound 5, N-[4-(4,5-Dihydro-1H-imidazol-2-yl)phenyl]-4-[[4-(4,5-dihydro-1H-imidazol-2-yl)benzoyl]amino]benzamide dimesylate] | – | no in vivo toxicity | –
CS(=O)(=O)O.O=C(NCc1ccc(C2=NCCN2)cc1)c1ccc(-c2cc3ccc(C4=NCCN4)cc3[nH]2)cc1 [Compound 12, 6-(4,5-Dihydro-1H-imidazol-2-yl)-2-[4-[[[[4-(4,5-dihydro-1H-imidazol-2-yl)phenyl]methyl]amino]carbonyl]phenyl]indole dimesylate] | ineffective | lethal | T. b. rhodesiense IC50 [2]: single digit nM; Mean Survival Days (T. brucei rhodesiense; 4×50 mg/kg ip on days 3–6 post-infection, mice with and without parasitemia relapse): toxic ^d
O=C(Nc1ccc(C2=NCCN2)cc1)c1ccc(-c2cc3ccc(C4=NCCN4)cc3[nH]2)cc1 [Compound 11, 6-(4,5-Dihydro-1H-imidazol-2-yl)-2-[4-[[[4-(4,5-dihydro-1H-imidazol-2-yl)phenyl]amino]carbonyl]phenyl]indole] | – | – | T. b. rhodesiense IC50 [2]: single digit nM
